Measurements from patent US5180712A, “Petide antidementia and nootropic agents” (Fujirebio Kabushiki Kaisha, priority 1988, dated 1993).
Where a SMILES comes first, the peptide text is derived from it. Bridges are numbered along the chain shown (N, C = ends). Roman numbers before positions name the chains, in order. [ ]: non-standard residue; d: D form. The star is where a group is joined. Cys(free,S-linked) = N[C@@H](CS*)C(=O)O; pGlu = O=C1CC[C@@H](C(=O)O)N1

Columns and labels:
male Wistar rats [1] = experiment: one-trial passive avoidance: facilitation effect of memory consolidation; format: in vivo, rat; details: for Effect (ratio of the response latent period of each group to that of the control groups): retention tested 24 hours later, latency max 600 seconds
Description: The effect of peptides of the invention on memory consolidation was evaluated by conducting one-trial passive avoidance experiments using male Wistar rats in accordance with the method described by Burbach et al., Science, vol. 221, pp. 1310-1312, 1983. The apparatus was composed of an illuminated room and a dark room, and their floors were made of a stainless-steel grid. The rats placed in the illuminated room could freely enter the dark room. Upon entering the dark room the rats received an electro-shock. Retention of passive avoidance behavior to the electro-shock was determined by the measurement of a response latent period, i.e. the period required for the rat which experienced the electro-shock to re-enter the dark room from the time at which the rat was placed in the illuminated room after predetermined intervals. The rats were treated with the peptides of the invention obtained in the aforementioned Example 1 to 4 or a physiological saline solution by means of a subcutaneous injection immediately after receiving the electro-shock (0.25 mA). Then 24 hours later, the retention of the memory of the electro-shock was tested. […] Comparison Compound 2 (known peptide): [drawing 14] For each group, 6 to 8 rats were tested. The response latent period was measured up to a maximum of 600 seconds. The dose and the effect (the ratio of the response latent period of each group to that of the control groups, shown as %) of the peptides obtained in each example and the peptides of each comparison compound are set forth in Table 1.

male Wistar rats [2] = experiment: one-trial passive avoidance: improvement effect of experimental retrograde amnesia by cycloheximide; format: in vivo, rat; details: 1 hr before electro-shock (0.5 mA), cycloheximide 2.7 to 3.0 mg/kg s.c. after shock, tested at 48 hours
Description: The effect of peptides of the invention on memory consolidation was evaluated by conducting one-trial passive avoidance experiments using male Wistar rats in accordance with the method described by Burbach et al., Science, vol. 221, pp. 1310-1312, 1983. The apparatus was composed of an illuminated room and a dark room, and their floors were made of a stainless-steel grid. The rats placed in the illuminated room could freely enter the dark room. Upon entering the dark room the rats received an electro-shock. Retention of passive avoidance behavior to the electro-shock was determined by the measurement of a response latent period, i.e. the period required for the rat which experienced the electro-shock to re-enter the dark room from the time at which the rat was placed in the illuminated room after predetermined intervals. The rats received an electro-shock (0.5 mA) one hr. after the administration of the peptides of the invention or a physiological saline solution. Immediately after receiving the electro-shock, the rats were treated with 2.7 to 3.0 mg/kg of cycloheximide or the saline solution by subcutaneous injection. At 48 hours after the administration was made, memory retention of the rats was tested. […] The average response latent period of rats administered with each peptide of the invention and treated with cycloheximide were compared with that of the control group. Six to eight rats were used for each group tested. The response latent period was measured up to a maximum of 600 seconds. The dose and the effect (the ratio of response latent period of each group to that of the control groups, shown as %) of the peptides obtained in each example and the peptides of each comparison example are set forth in Table 2.

[3] = dose 1 ng/kg subcutaneous immediately after electro-shock (0.25 mA)

N=C(N)NCCC[C@H](NC(=O)[C@@H]1CCCN1C(=O)[C@H](CSSC[C@H](NC(=O)[C@H](CC(N)=O)NC(=O)[C@@H]1CCC(=O)N1)C(=O)N1CCC[C@H]1C(=O)N[C@@H](CCCNC(=N)N)C(=O)NCC(N)=O)NC(=O)[C@H](CC(N)=O)NC(=O)[C@@H]1CCC(=O)N1)C(=O)NCC(N)=O [Comparison 2, reference compound] (I: [pGlu]NCPRG-NH2 / II: [pGlu]NCPRG-NH2; disulfide I:3-II:3)
Effect (ratio of the response latent period of each group to that of the control groups) (male Wistar rats [1]; dose 10 ng/kg subcutaneous immediately after electro-shock (0.25 mA)): 249% | Effect (ratio of response latent period of each group to that of the control groups) (male Wistar rats [2]; dose 100 ng/kg): 503%

N=C(N)NCCC[C@@H](NC(=O)[C@@H]1CCCN1C(=O)[C@H](CSSC[C@H](N)C(=O)O)NC(=O)[C@H](CC(N)=O)NC(=O)[C@@H]1CCC(=O)N1)C(=O)NCC(N)=O [Example 1] ([pGlu]NC(Cys(free,S-linked))P[dR]G-NH2)
Effect (ratio of the response latent period of each group to that of the control groups) (male Wistar rats [1]; [3]): 267% | dose giving the same effect, as fraction of the dose of Comparison Compound 1 (male Wistar rats [1]; passive avoidance tests, versus Comparison Compound 1): 1/10 | Effect (ratio of response latent period of each group to that of the control groups) (male Wistar rats [2]; dose 1 ng/kg): 302%

N=C(N)NCCC[C@H](NC(=O)[C@@H]1CCCN1C(=O)[C@H](CS)NC(=O)[C@H](CC(N)=O)NC(=O)[C@@H]1CCC(=O)N1)C(=O)NCC(N)=O [Example 2, pGlu-Asn-Cys-Pro-Arg-Gly--NH2 acetate] ([pGlu]NCPRG-NH2)
Effect (ratio of the response latent period of each group to that of the control groups) (male Wistar rats [1]; [3]): 295% | Effect (ratio of response latent period of each group to that of the control groups) (male Wistar rats [2]; dose 1 ng/kg): 633%

N=C(N)NCCC[C@H](NC(=O)[C@H]1CCCN1C(=O)[C@H](CSSC[C@H](N)C(=O)O)NC(=O)[C@H](CC(N)=O)NC(=O)[C@@H]1CCC(=O)N1)C(=O)NCC(N)=O [Example 3] ([pGlu]NC(Cys(free,S-linked))[dP]RG-NH2)
Effect (ratio of the response latent period of each group to that of the control groups) (male Wistar rats [1]; [3]): 253% | Effect (ratio of response latent period of each group to that of the control groups) (male Wistar rats [2]; dose 1 ng/kg): 380%

N=C(N)NCCC[C@H](NC(=O)[C@@H]1CCCN1C(=O)[C@H](CS)NC(=O)[C@@H](N)CC(N)=O)C(=O)O [Example 4, H-Asn-Cys-Pro-Arg-OH acetate] (H-NCPR-OH)
Effect (ratio of the response latent period of each group to that of the control groups) (male Wistar rats [1]; [3]): 316% | Effect (ratio of response latent period of each group to that of the control groups) (male Wistar rats [2]; dose 1 ng/kg): 320%
